What was measured:
[1] = tested on: silent GFP reporter in HeLa TI-C cell clones; test: GFP reactivation in TI-C silent cell clones (FACS); format: cell-based, human; settings: TSA treatment, FACS after 24 hours, vs DMSO control
From the text: Cells. HeLa cell populations containing silent GFP genes, as described by Katz et al., 2007, J. Virol. 81:2592-2604, were utilized. TI-C cell clones were isolated by cell sorting as described by Katz et al., 2007, J. Virol. 81:2592-2604.
Analysis of GFP expression. GFP expression was quantitated by FACScan as described previously (Greger et al., 2005, J. Virol. 79:4610-4618; Katz et al., 2007, J. Virol. 81:2592-2604; Poleshko et al., 2008, J. Virol. 82:2313-2323).
Evidence for position-independent roles for HDAC1 and Daxx in retroviral reporter gene silencing. To determine if the integration sites of the retroviral DNA are determinants for the participation of specific host factors that control epigenetic silencing, a series of TI-C cell clones was examined. These clones were derived from a pool of cells in which the average GFP copy number was ca. 1 as measured by quantitative real-time PCR (Katz et al., 2007, J. Virol. 81:2592-2604; Poleshko et al., 2008, J. Virol. 82:2313-2323). […] As with the TI-C cell population, transfection with the HDAC1 siRNA pool phenocopied the TSA treatment (compare FIGS. 4A and B). Based on analyses of these clones, it was concluded that HDAC1 and, in most cases, Daxx are required for the maintenance of silencing at independent loci, but the integration site may modulate the extent of reactivation.

[2] = target: heterochromatin protein 1 gamma (HP1γ) (Homo sapiens (Human)) (UniProt Q13185); test: cell-based or functional assay
Sequence of UniProt Q13185 (Q13185 whole entry): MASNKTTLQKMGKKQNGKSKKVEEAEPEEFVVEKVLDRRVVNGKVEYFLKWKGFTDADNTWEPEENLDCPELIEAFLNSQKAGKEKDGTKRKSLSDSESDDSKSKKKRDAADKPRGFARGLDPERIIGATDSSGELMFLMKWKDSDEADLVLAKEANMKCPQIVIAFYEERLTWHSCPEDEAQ

Row | Compound | GFP reactivation in TI-C cell clones [1] | GFP-positive cells at 5 days postinfection (FACS) (% GFP-positive cells) [2]
1 | CC(/C=C/C(=O)NO)=C\[C@@H](C)C(=O)c1ccc(N(C)C)cc1 [TSA, trichostatin A] | induced GFP reactivation, but to various degrees | 
2 | dominant negative form of HP1 (dnHP1) (from UniProt P83916 104-185) |  | 24

— patent publication US20110172107A1, “ASSAY FOR IDENTIFYING AGENTS THAT MODULATE EPIGENETIC SILENCING, AND AGENTS IDENTIFIED THEREBY” (FOX CHASE CANCER CENTER, priority 2008, published 2011)
